Measured values published in patent EP0240854A1, “Bis-tert-butylamino-substituted 1,3,5-triazine derivatives, process for their preparation, medicaments containing these compounds, and their use” (HOECHST AKTIENGESELLSCHAFT, priority 1986, dated 1987).

Tests used:
[1] = tested on: Pentetrazol-induzierte Krämpfe; assay: Antagonism against pentetrazol-induced convulsions (Swinyard); assay type: in vivo, Maus; settings: p.o., pentetrazol 125 mg/kg s.c. 1 h after test substance, tonic extensor convulsions; for ED50: Mus musculus, po, 1 h, read-out: Ptz Maus ED 50
Source text: (§1) Die Krampf-verhindernde (antikonvulsive) Wirkung der erfindungsgemäßen Verbindungen wurde an Mäusen gegen Pentetrazol- und gegen Elektroschock- induzierte Krämpfe in der Anordnung von SWINYARD geprüft.
1. Antagonismus gegen Pentetrazol-induzierte Krämpfe (Maus)
Methode (E.A.SWINYARD, J.Pharmacol.Exp.Ther. 106, (1952), 319-330):
Gruppen von 10 männlichen Mäusen (Stamm: NMRI, SPF-71, KF) im Gewicht von 18-22 g werden in diesem Versuch verwendet. Die zu prüfenden Substanzen werden in einer 1 %-igen Aufschwemmung von ®Tylose (Methyl-hydroxy-ethyl-cellulose) in Wasser suspendiert und per Schlundsonde in einem Volumen von 10 ml/kg Körpergewicht oral verabreicht. Die Kontrollgruppe erhält ein entsprechendes Volumen Tylosesuspension ohne Prüfsubstanz. Pentetrazol (Cardiazol®) wird in wässriger Lösung in einer Dosis von 125 mg/kg Körpergewicht 1 Stunde nach Verabreichung der Prüfsubstanzen subcutan injiziert. Diese Dosis erzeugt bei 90-100 % der Kontrolltiere innerhalb der Beobachtungszeit von 60 Minuten nach der Injektion tonische Extensorkrämpfe der hinteren Extremitä-ten. Als Schutzwirkung der Prüfsubstanz wird gewertet, wenn die Anzahl der krampfenden Tiere gegenüber der Kontrollgruppe vermindert ist. Bei vorhandener Schutzwirkung der Prüfsubstanz wird eine mittlere effektive Dosis (ED-50) grafisch (Litchfield and Wilcoxon) oder rechnerisch (Probitanalyse) ermittelt.

[2] = tested on: Elektroschock-induzierte Krämpfe; assay: Antagonism against electroshock-induced convulsions (Swinyard); assay type: in vivo; settings: Mus musculus, po, electroshock via corneal electrodes 1 h after test substance, tonic extensor convulsions; read-out: ECS Maus ED 50
Source text: as §1
2. Antagonismus gegen Elektroschock-induzierte Krämpfe (Maus).
Methode (E.A.SWINYARD, In: Experimental Models of Epilepsy, Raven Press, New York, 1972, p. 433-458):
Gruppen von 6 männlichen Mäusen (Stamm: NMRI, SPF-71, KF) im Gewicht von 18-22 g werden in diesem Versuch verwendet. Die zu prüfenden Substanzen werden in einer 1 %igen Aufschwemmung von Tylose (Methyl-hydroxy-ethyl-cellulose) in Wasser suspendiert und per Schlundsonde in einem Volumen von 10 ml/kg Körpergewicht oral verabreicht. Die Kontrollgruppe erhält ein entsprechendes Volumen Tylosesuspension ohne Prüfsubstanz. Eine Stunde nach Prüfsubstanzgabe wird den Tieren über Cornea-Elektroden ein Elektroschock verabreicht (Stromstärke 12-22 mA, Dauer 0,2 sec, 50 Hz), nachdem vorher an einer zweiten Kontrollgruppe die Stromstärke ermittelt worden war, die bei 100 % der Tiere eine tonischen Extensorkrampf der hinteren Extremitäten hervorruft. Die Anzahl der durch die Prüfsubstanz vor einem Extensorkrampf geschützten Tiere dient als Mass der antikonvulsiven Wirkung in diesem Test. Bei vorhandener Schutzwirkung der Prüfsubstanz wird eine mittlere effektive Dosis (ED-50) grafisch (Litchfield and Wilcoxon) oder rechnerisch (Probitanalyse) ermittelt.

Wistar Ratten [3] = assay: Geller-Seifter conflict test; assay type: in vivo, Ratte; settings: for minimal effective dose: Rattus norvegicus, po, 0.5 h, p.o., 30 min before test, lowest dose with significant change of lever press rate, read-out: Geller Ratte MED
Source text: (§2) Die Angst-lösende (anxiolytische Wirkung) der erfindungsgemäßen Verbindungen wurde im "Lick-shock-conflict- Test" nach VOGEl und im "Geller-Seifter-Konflikt-Test" nach GELLER und SEIFTER an WISTAR-Ratten geprüft.
4. Geller-Seifter-Konflikt-Test
Methode (Geller, I.und Seifter, J., Psychopharmacologia 1 (1962), 482):
Männliche Wistar Ratten aus eigener Aufzucht (SPF Hattersheim) im Gewicht zwischen 240 und 370 g werden verwendet und Versuchsgruppen zu je 8 Tieren zugeordnet. Je 4 Tiere werden in Plastikkäfigen (56x38x20 cm) zusammengesetzt und durch abgewogene Futtermengen auf ca. 80 % ihres normalen Körpergewichts gehalten.
Die Tiere werden trainiert, in einer SKINNER-Box eine Taste zu drücken, um eine Belohnung in Form von gesüßter Kondensmilch zu erhalten. Die Box enthält zwei Tasten mit Mikroschaltern, einen Lautsprecher, ein Hauslicht, zwei Signallichter über den Tasten sowie einen Fußboden aus Metallstäben. Das Trainingsschema wurde der Arbeit von GELLER und SEIFTER (1962) in der Modifikation von DAVIDSON & COOK (Psychopharmacologia 15 (1969), 159-168) entlehnt: Jede Sitzung besteht aus vier 15-Minuten-Abschnitten, die alle aus einer 12-minütigen "Variable Interval" (VI) Phase und einer 3-minütigen "Fixed ration" (FR) Phase zusammengesetzt sind. Während der VI-Phase erhalten die Tiere auf Tastendruck Milchbelohnungen in einem durch einen Zufallsgenerator gesteuerten Intervall von 10-110 sec. mit einem Mittelwert um 60 15 sec. Während der FR-Phase erhalten die Tiere für jeden Tastendruck eine Belohnung, zusätzlich wird jedoch bei jedem 3. Tastendruck ein schmerzhafter elektrischer Reiz über die Fussbodenstäbe verabreicht, um eine Konfliktsituation zu erzeugen. Die Stromstärke des elektrischen Reizes wird für jedes Tier individuell so eingestellt (0,3-0,6 mA), daß die Tastendruckrate in der gesamten FR-Phase zwischen 5 und 15 liegt.
Das Training findet an 5 Tagen in der Woche statt, Versuche mit Prüfsubstanzen werden einmal wöchentlich durchgeführt. Da die Tiere als ihre eigene Kontrolle dienen, werden vor jedem Versuch mit Prüfsubstanzen mindestens zwei Vorwerte ohne Prüfsubstanz durchgeführt. Die zu prüfenden Verbindungen werden in einem 1 %igen Tylose-Gel suspendiert und 30 min vor Testbeginn oral per Schlundsonde in einem Volumen von 2 ml/kg verabreicht. Veränderungen der Tastendruckrate in der VI-Phase werden als Beeinflussung der motorischen Aktivität und Steigerung der Tastendruckrate in der FR-Phase werden als Anzeichnen für eine "Antikonflikt-" bzw. "anxiolytische" Wirkung gewertet. Bestimmt wird meist die minimal effektive Dosis (MED) der Prüfsubstanz, d.i. die niedrigste geprüfte Dosis, die noch eine statistisch signifikante Änderung der Tastendruckrate bewirkt (p=0,05; WILCOXON matched pairs signed rank test).

Wistar Ratten [4] = assay: Lick-shock-conflict test (Vogel); assay type: in vivo, Ratte; settings: Rattus norvegicus, po; for minimal effective dose: lowest dose with significant increase of lickings in the shock phase, read-out: Lick-Sh. Ratte MED; for change in vivo at 10 mg/kg: 10 mg/kg p.o.; for change in vivo at 10 mg/kg / change in vivo at 30 mg/kg: increase versus control group, read-out: Lick-Sh. Ratte prozentuale Zunahme der angenommenen Belohnungen (Wasser); for change in vivo at 30 mg/kg: 30 mg/kg p.o.
Source text: as §2
3. Lick-shock-conflict-Test
Methode (VOGEL, J.R., Psychopharmacologia 21, (1971), 1-7
Männliche Wistar Ratten aus eigener Aufzucht (SPF Hattersheim) im Gewicht zwischen 90 und 120 g werden verwendet. Den Tieren wird für 48 Stunden vor Testbeginn das Trinkwasser entzogen. Zum Test werden die Tiere in eine Plastikbox (14x12x28 cm, BxTxH) gesetzt, die mit einer Wasserflasche mit Metall-Trinkrohr ausgestattet ist und die außerdem erlaubt, über eine elektronische Schaltung die Anzahl der Kontakte der Zunge des Tieres mit dem Trinkrohr zu messen. Der Boden der Box besteht aus Metallstäben, die durch die Steuerungselektronik unter Strom gesetzt werden können. Die Tiere haben nach dem Einsetzen in die Box 5 min. Zeit, um das Trinkrohr zu finden und 50-mal daran zu lekken. Tiere, die das Trinkrohr innerhalb dieser Zeit nicht gefunden haben, werden für den Versuch nicht verwendet. Nach diesen 50 Leckvorgängen (lickings) werden Trinkrohr und Bodenstäbe für jeweils 5 sec unter Strom gesetzt (Gleichstrom 300 µA) und dann für weitere 5 sec. wieder freigegeben. Diese Folge wird alternierend für eine Zeit von 5 min. weitergeführt, wobei die Zahl der Trinkrohr-Kontakte des Tieres während der Reizstrom- und der reizstromfreien Phase auf verschiedenen elektronischen Zählern registriert werden.
Gruppen von jeweils acht Tieren pro Dosis werden mit den Prüfsubstanzen, die in einem 1 %igen Tylose-Gel aufgeschwemmt sind, oral per Schlundsonde behandelt. Das Injektionsvolumen beträgt 5 ml/kg Körpergewicht. Die Prüfung in der obg. Testapparatur erfolgt 1 und 2 Std. nach Applikation der Prüfsubstanzen. Die Anzahl der Trinkrohr-Kontakte in der Reizstrom-Phase dient als Prüf-Variable. Die mittlere Anzahl der Kontakte in dieser Phase bei der Kontrollgruppe wird zu 100 % gesetzt und Zu- oder Abnahme der Kontaktzahl bei den mit Prüfsubstanz behandelten Tieren wird prozentual in Bezug auf die Kontrollgruppe ausgedrückt.
Anxiolytika bewirken in diesem Test gewöhnlich eine deutliche Zunahme der Wasseraufnahme (lickings) in der Reizstrom-Phase gegenüber den unbehandelten Kontrollen. Falls eine lineare oder logarithmische Beziehung zwischen Dosis und Wirkung gegeben ist, wird eine ED + 100 (d.i. die Dosis, die eine Zunahme der Wasseraufnahme um 100 % gegenüber der Kontrollgruppe bewirkt) mittels Regressionsanalyse errechnet. Ist eine lineare Dosisabhängigkeit nicht gegeben, so wird eine minimal effektive Dosis (MED) bestimmt, d.i. die niedrigste Dosis der Prüfsubstanz, die noch eine statistisch signifikante Zunahme der Wasseraufnahme im Vergleich zur Kontrollgruppe bewirkt (p=0,05, DUNNET-Test).

SMILES | ED50 [1] | ED50 [2] | Geller Ratte prozentuale Zunahme der angenommenen Belohnungen (Milch) (Wistar Ratten [3]; 10 mg/kg p.o.) | Geller Ratte prozentuale Zunahme der angenommenen Belohnungen (Milch) (Wistar Ratten [3]; 30 mg/kg p.o.) | minimal effective dose (Wistar Ratten [3]) | minimal effective dose (Wistar Ratten [4]) | change in vivo at 10 mg/kg (Wistar Ratten [4]) | change in vivo at 30 mg/kg (Wistar Ratten [4]) | Geller Ratte prozentuale Zunahme der angenommenen Belohnungen (Milch) (Wistar Ratten [3]; 2,5 mg/kg p.o.) | Ptz Maus ED 50 ([1]; 60 min) | Geller Ratte prozentuale Zunahme der angenommenen Belohnungen (Milch) (Wistar Ratten [3]; 3 mg/kg p.o.)
CC(C)Nc1nc(NC(C)(C)C)nc(NC(C)(C)C)n1 [Beispiel 8, 2,4-Bis-(tert.butylamino)-6-isopropylamino-1,3,5-triazin] | 2.3 mg/kg | 46.6 mg/kg | 76% | 91% | 10 mg/kg | 10 mg/kg | 154% | 230% | – | – | –
CC(C)C(C)Nc1nc(NC(C)(C)C)nc(NC(C)(C)C)n1 (stereo not drawn) [Beispiel 10, 2,4-Bis-(tert.-butylamino)-6-(1,2-dimethylpropylamino)-1,3,5-triazin] | 30 mg/kg | 19.7 mg/kg | – | – | – | 30 mg/kg | – | 61% | – | – | –
CC(C)(C)Nc1nc(NN2CCOCC2)nc(NC(C)(C)C)n1 [Beispiel 4, 2,4-Bis-(tert.butylamino)-6-(morpholino-amino)-1,3,5-triazin] | 8.3 mg/kg | 30 mg/kg | – | – | 2.5 mg/kg | 10 mg/kg | 82% | – | 22% | – | –
CC(C)(C)Nc1nc(NC(C)(C)C)nc(N2CCCC2)n1 [Beispiel 2, 2,4-Bis-(tert.butylamino)-6-pyrrolidino-1,3,5-triazin] | 2.4 mg/kg | 30 mg/kg | – | – | – | 10 mg/kg | 61% | 74% | – | – | –
CN(C)Nc1nc(NC(C)(C)C)nc(NC(C)(C)C)n1 [Beispiel 6, 2,4-Bis-(tert.butylamino)-6-(Nʹ-dimethylhydrazino)-1,3,5-triazin] | 10 mg/kg | 20.7 mg/kg | – | – | 10 mg/kg | 10 mg/kg | 103% | – | – | – | –
CC(C)(C)Nc1nc(NC(C)(C)C)nc(-n2ccnc2)n1 [Beispiel 5] | 12.2 mg/kg | 30 mg/kg | – | – | – | 30 mg/kg | – | 34% | – | – | –
CC(C)(C)Nc1nc(NC(C)(C)C)nc(N2CCCCC2)n1 [Beispiel 1, 2,4-Bis-(tert.butylamino)-6-piperidino-1,3,5-triazin] | 4.2 mg/kg | 32 mg/kg | 97% | 382% | 3 mg/kg | 10 mg/kg | 63% | – | – | 2.1 mg/kg | 91%
CCN(CC)c1nc(NC(C)(C)C)nc(NC(C)(C)C)n1 [Beispiel 7, 2,4-Bis-(tert.butylamino)-6-diethylamino-1,3,5-triazin] | 6.9 mg/kg | 14.5 mg/kg | – | – | – | 30 mg/kg | – | 101% | – | – | –
CC(C)(C)Nc1nc(NC2CCCC2)nc(NC(C)(C)C)n1 [Beispiel 9, 2,4-Bis-(tert.butylamino)-6-cyclopentylamino-1,3,5-triazin] | 10.3 mg/kg | 24.7 mg/kg | – | – | – | 30 mg/kg | – | 68% | – | – | –
CC(C)(C)Nc1nc(NN2CCCCC2)nc(NC(C)(C)C)n1 [Beispiel 3, 2,4-Bis-(tert.butylamino)-6-(piperidino-amino)-1,3,5-triazin] | 3.2 mg/kg | 30 mg/kg | – | – | – | 10 mg/kg | 75% | 87% | – | – | –
